Results reported in PMC9743092, “Membrane-Active Cyclic Amphiphilic Peptides: Broad-Spectrum Antibacterial Activity Alone and in Combination with Antibiotics” (Journal of Medicinal Chemistry, 2022).
≈ marks a conversion by molar mass, not a printed value. Read-outs that look alike come from different tables or passages of the source. Bridge positions count the residues as written; N and C are the ends. Square brackets hold non-standard residues; d marks the D form. Peptide text beside a SMILES is read from it. * marks the point of attachment. X1 = CC[C@H](C)CCCCC(=O)*; Dab = NCC[C@H](N)C(=O)O

Key:
[1] = test system: normal lung (MRC-5) cells
[2] = test system: human skin fibroblast cells (HeKa)
[3] = design: method as in PMID 25808204; conditions: cited from earlier work
E. coli (1191008) = assay: microbe, parasite or virus in culture; conditions: Escherichia coli, read-out: MIC E. coli (1191008)
[4] = test system: P. aeruginosa (ATCC 27853); assay: microbe, parasite or virus in culture; conditions: Pseudomonas aeruginosa, ATCC27853, read-out: MIC P. aeruginosa (ATCC 27853)
S. aureus (ATCC 29213) = assay: microbe, parasite or virus in culture; conditions: Staphylococcus aureus, ATCC29213, read-out: MIC S. aureus (ATCC 29213)
E. coli (ATCC 25922) [5] = assay: microbe, parasite or virus in culture; conditions: Escherichia coli, ATCC25922, read-out: MIC E. coli (ATCC 25922)
K. pneumoniae (1188718) = assay: microbe, parasite or virus in culture; conditions: Klebsiella pneumoniae, read-out: MIC K. pneumoniae (1188718)
P. aeruginosa (1188712) = assay: microbe, parasite or virus in culture; conditions: Pseudomonas aeruginosa, read-out: MIC P. aeruginosa (1188712)
S. aureus (1193193) = assay: microbe, parasite or virus in culture; conditions: Staphylococcus aureus, read-out: MIC S. aureus (1193193)
[6] = test system: K. pneumoniae (ATCC 700603); assay: microbe, parasite or virus in culture; conditions: Klebsiella pneumoniae, ATCC700603, read-out: MIC K. pneumoniae (ATCC 700603)
[7] = test system: P. aeruginosa (ATCC 27883); assay: Synergistic checkerboard assay; type: cell-based; conditions: Pseudomonas aeruginosa
Protocol: (§3) This study aimed to compare the influence of synergistic combinations on the antibacterial efficacy against the individual peptide or antibiotic. The comparison is represented by the fractional inhibitory concentration index (FICI) value, which classifies the combined impact of the two tested compounds. Selected antibiotics were tested as 11 dose points of two-fold serial dilutions across the assay plate in combination with seven points of two-fold serial dilution of the peptides down the assay plate. Two-fold serial dilutions for antibiotics and peptides were performed individually to determine the MIC value for each tested compound.
(§4) The concentrations of the peptide started from its respective MICs and were then subjected to two-fold serial dilutions (a total of 7 points). […] Antibiotics were tested as 11 points, two-fold serial dilutions across the assay plate (from 1 to 11 columns) in combination with a seven (A–G)-point and two-fold serial dilution of the peptides down the assay plate. […] In column 12 (A–G) down the assay plate, a two-fold serial dilution of the peptide alone was performed.
(§5) The following equation was applied to calculate the FICI: (A)/MICA + (B)/MICB = FICA + FICB = FICI, where (A) and (B) are the MIC of (antibiotic + [peptide]) in combination (in a single well) and MICA and MICB are the MIC of each compound individually. Based on the calculated FICI value, the interaction between combinations was categorized into four prospects synergy, partial synergy, additive or indifference, and antagonism. […] All experiments were performed in triplicate.

[8] = test system: K. pneumoniae (ATCC BAA-1705); conditions: antibiotic alone or physical mixture with peptide (1:1 w/w)
[9] = Calcein dye leakage assay; conditions: 50 μg/mL, 100 min
E. coli (ATCC 25922) [10] = assay: Synergistic checkerboard assay; type: cell-based; conditions: Escherichia coli
Protocol: as §3, §4, §5

[11] = test system: P. aeruginosa (ATCC 27883); conditions: antibiotic alone or physical mixture with peptide (1:1 w/w)
[12] = Calcein dye leakage assay; conditions: 50 μg/mL, 100 min; remark: listed apart in the source
[13] = test system: K. pneumoniae (ATCC BAA-1705); assay: Synergistic checkerboard assay; conditions: Klebsiella pneumoniae, ATCCBAA1705, read-out: MIC antibiotic alone
Protocol: as §3, §4, §5

[14] = test system: Bacillus subtilis (ATCC-6633); assay: microbe, parasite or virus in culture; type: cell-based; conditions: ATCC6633, Gram-positive
Protocol: (§1) Daptomycin and polymyxin B were selected as positive controls against Gram-positive and Gram-negative bacteria, respectively.
(§2) All experiments were conducted in triplicate.

E. faecalis (ATCC 51575) = assay: microbe, parasite or virus in culture; type: cell-based; conditions: Enterococcus faecalis, ATCC51575; Gram-positive; gentamicin-, streptomycin-, vancomycin-resistant
Protocol: as §1, §2

[15] = test system: S. pneumonia (ATCC 49619); assay: microbe, parasite or virus in culture; type: cell-based; conditions: Streptococcus pneumoniae, ATCC49619; Gram-positive
Protocol: as §1, §2

E. faecium (ATCC 27270) = assay: microbe, parasite or virus in culture; type: cell-based; conditions: Enterococcus faecium, ATCC27270; Gram-positive
Protocol: as §1, §2

E. faecalis (ATCC 29212) = assay: microbe, parasite or virus in culture; type: cell-based; conditions: Enterococcus faecalis, ATCC29212; Gram-positive
Protocol: as §1, §2

[16] = test system: S. pneumonia (ATCC 51938); assay: microbe, parasite or virus in culture; type: cell-based; conditions: Streptococcus pneumoniae, ATCC51938; Gram-positive; penicillin-, clindamycin-, cotrimoxazole-, erythromycin-resistant
Protocol: as §1, §2

MRSA (ATCC BAA-1556) [17] = assay: microbe, parasite or virus in culture; conditions: Staphylococcus aureus, ATCCBAA1556|MRSA, 24 h, read-out: MBC MRSA (ATCC BAA-1556)
E. coli (ATCC 25922) [18] = conditions: antibiotic alone or physical mixture with peptide (1:1 w/w)
[19] = test system: S. aureus (ATCC 29213), MRSA (ATCC BAA-1556), E. coli (ATCC 25922), E. coli (ATCC BAA-2452); assay: Serial passage resistance development study; type: cell-based, S. aureus and E. coli; conditions: 18 repeated passages
Protocol: The data represent the experiments performed in triplicate.
The assays were performed in 96-well microtiter plates using 2-fold serial dilutions of all the test specimens. From an inoculated microtiter plate, an aliquot of the well with the highest concentration permitting growth was taken and diluted in fresh media to achieve the optimum bacterial load identified by comparing the turbidity with the 0.5 McFarland standard. The bacterial suspension was then further diluted and used for successive passage with a resulting final concentration of 5 × 10^5 CFU/mL. MICs were recorded, and the next inoculum was prepared from the well containing the highest concentration of the drug that allowed growth. Eighteen repeated passages were performed in an identical fashion to that described above.

[20] = test system: S. aureus (ATCC BAA-1556); assay: Synergistic checkerboard assay; type: cell-based; conditions: Staphylococcus aureus
Protocol: as §3, §4, §5

[21] = test system: K. pneumoniae (ATCC BAA-1705); assay: microbe, parasite or virus in culture; conditions: Klebsiella pneumoniae, ATCCBAA1705, 24 h, read-out: MBC K. pneumoniae (ATCC BAA-1705)
[22] = test system: P. aeruginosa (ATCC 27883); assay: microbe, parasite or virus in culture; conditions: Pseudomonas aeruginosa, ATCC27883, 24 h, read-out: MBC P. aeruginosa (ATCC 27883)
[23] = test system: P. aeruginosa (ATCC 27883); assay: microbe, parasite or virus in culture; conditions: Pseudomonas aeruginosa, ATCC27883, read-out: MIC P. aeruginosa (ATCC 27883)
MRSA (ATCC BAA-1556) [24] = assay: microbe, parasite or virus in culture; conditions: Staphylococcus aureus
E. coli (ATCC 25922) [25] = assay: microbe, parasite or virus in culture; conditions: Escherichia coli, ATCC25922, read-out: MIC E. coli (ATCC 25922); remark: listed apart in the source
E. coli (ATCC 25922) [26] = assay: microbe, parasite or virus in culture; conditions: Escherichia coli, ATCC25922, 24 h, read-out: MBC E. coli (ATCC 25922)
MRSA (ATCC BAA-1556) [27] = conditions: antibiotic alone or physical mixture with peptide (1:1 w/w)
E. coli (ATCC BAA-2452) = assay: microbe, parasite or virus in culture; type: cell-based; conditions: Escherichia coli, ATCCBAA2452, read-out: MIC E. coli (ATCC BAA-2452)
Protocol: as §1, §2

[28] = test system: P. aeruginosa (ATCC BAA-1744); assay: microbe, parasite or virus in culture; type: cell-based; conditions: Pseudomonas aeruginosa, ATCCBAA1744, read-out: MIC P. aeruginosa (ATCC BAA-1744)
Protocol: as §1, §2

[29] = test system: P. aeruginosa (ATCC 10145); assay: microbe, parasite or virus in culture; type: cell-based; conditions: Pseudomonas aeruginosa, ATCC10145, read-out: MIC P. aeruginosa (ATCC 10145)
Protocol: as §1, §2

[30] = test system: K. pneumoniae (ATCC 13883); assay: microbe, parasite or virus in culture; type: cell-based; conditions: Klebsiella pneumoniae, ATCC13883, read-out: MIC K. pneumoniae (ATCC 13883)
Protocol: as §1, §2

[31] = test system: Acinetobacter baumannii (ATCCBAA-1605); assay: microbe, parasite or virus in culture; type: cell-based; conditions: ATCCBAA1605, read-out: MIC Acinetobacter baumannii (ATCCBAA-1605)
Protocol: as §1, §2

[32] = test system: K. pneumoniae (ATCC BAA-1705); assay: microbe, parasite or virus in culture; conditions: Klebsiella pneumoniae, ATCCBAA1705, read-out: MIC K. pneumoniae (ATCC BAA-1705)
[33] = ATCC27883, checkerboard, read-out: MIC antibiotic alone
[34] = ATCC25922, checkerboard, read-out: MIC antibiotic alone
[35] = read-out: MIC MRSA (ATCC BAA-1556)

C[S+](C)[O-] [DMSO (30%), DMSO]
cell viability [1]: 7–11%
cell viability (kidney (HEK-293) cells): 7–11%
cell viability [2]: 7–11%
cell viability (liver (HepaRG) cells): 7–11%

N=C(N)NCCC[C@H](N)C(=O)O [arginine]
pKa value of the arginine guanidinium group [3]: 13.8 ± 0.1

CO/N=C(\C(=O)N[C@@H]1C(=O)N2C(C(=O)[O-])=C(C[N+]3(C)CCCC3)CS[C@H]12)c1csc(N)n1 [cefepime]
MIC (E. coli (1191008)): 8 µg/mL (≈ 16.6 µM)
MIC [4]: 1 µg/mL (≈ 2.08 µM)
MIC (S. aureus (ATCC 29213)): 2 µg/mL (≈ 4.16 µM)
MIC (E. coli (ATCC 25922) [5]): 0.06 µg/mL (≈ 0.125 µM)
MIC (K. pneumoniae (1188718)): 8 µg/mL (≈ 16.6 µM)
MIC (P. aeruginosa (1188712)): 8 µg/mL (≈ 16.6 µM)
MIC (S. aureus (1193193)): 16 µg/mL (≈ 33.3 µM)
MIC [6]: 1 µg/mL (≈ 2.08 µM)

CCCCCCCCCC(=O)N[C@@H](Cc1c[nH]c2ccccc12)C(=O)N[C@H](CC(N)=O)C(=O)N[C@@H](CC(=O)O)C(=O)N[C@@H]1C(=O)NCC(=O)N[C@@H](CCCN)C(=O)N[C@@H](CC(=O)O)C(=O)N[C@H](C)C(=O)N[C@@H](CC(=O)O)C(=O)NCC(=O)N[C@H](CO)C(=O)N[C@@H]([C@H](C)CC(=O)O)C(=O)N[C@@H](CC(=O)c2ccccc2N)C(=O)O[C@@H]1C [daptomycin]
MIC [7, 33]: 512 µg/mL
MIC K. pneumoniae (ATCC BAA-1705) [8]: 512 µg/mL (≈ 316 µM)
calcein dye release [9]: 42%
MIC (E. coli (ATCC 25922) [10]; [34]): > 128 µg/mL
MIC P. aeruginosa (ATCC 27883) [11]: 512 µg/mL (≈ 316 µM)
calcein dye leakage [12]: around 7%
MIC [13]: 512 µg/mL
MIC [14]: 0.5 µg/mL (≈ 0.309 µM)
MIC (E. faecalis (ATCC 51575)): 4 µg/mL (≈ 2.47 µM)
MIC [15]: 4 µg/mL (≈ 2.47 µM)
MIC (E. faecium (ATCC 27270)): 4 µg/mL (≈ 2.47 µM)
MIC (E. faecalis (ATCC 29212)): 16 µg/mL (≈ 9.87 µM)
MIC [16]: 8 µg/mL (≈ 4.94 µM)
MBC (MRSA (ATCC BAA-1556) [17]): 8 µg/mL (≈ 4.94 µM)
MIC E. coli (ATCC 25922) (E. coli (ATCC 25922) [18]): 256 µg/mL (≈ 158 µM)
change in MIC on resistance induction [19]: negligible changes in the MICs

C[C@@H](O)[C@H]1C(=O)N2C(C(=O)O)=C(S[C@@H]3CN[C@H](C(=O)N(C)C)C3)[C@H](C)[C@H]12 [meropenem]
MIC [7, 33]: 1 µg/mL
MIC ([20]; ATCCBAA1556, checkerboard, read-out: MIC antibiotic alone): 2 µg/mL
MBC [21]: 64 µg/mL (≈ 167 µM)
MIC (E. coli (ATCC 25922) [10]; [34]): 1 µg/mL
MBC [22]: 4 µg/mL (≈ 10.4 µM)
MBC (MRSA (ATCC BAA-1556) [17]): 8 µg/mL (≈ 20.9 µM)
MIC [23]: 1 µg/mL (≈ 2.61 µM)
MIC (MRSA (ATCC BAA-1556) [24]; [35]): 2 µg/mL (≈ 5.22 µM)
MIC (MRSA (ATCC BAA-1556) [24]; read-out: MIC S. aureus (ATCC BAA-1556)): 2 µg/mL (≈ 5.22 µM)
MIC (E. coli (ATCC 25922) [25]): 1 µg/mL (≈ 2.61 µM)
MBC (E. coli (ATCC 25922) [26]): 2 µg/mL (≈ 5.22 µM)

CC[C@H](C)CCCCC(=O)N[C@@H](CCN)C(=O)N[C@H](C(=O)N[C@@H](CCN)C(=O)N[C@H]1CCNC(=O)[C@H]([C@@H](C)O)NC(=O)[C@H](CCN)NC(=O)[C@H](CCN)NC(=O)[C@H](CC(C)C)NC(=O)[C@@H](Cc2ccccc2)NC(=O)[C@H](CCN)NC1=O)[C@@H](C)O [polymyxin B] (X1-[Dab]T[Dab][Dab][Dab][dF]L[Dab][Dab]T; lactam 4-C)
MIC ([7]; ATCC27883, read-out: MIC antibiotic alone): 1 µg/mL
MIC ([20]; ATCCBAA1556, read-out: MIC antibiotic alone): 64 µg/mL
MIC S. aureus (ATCC BAA-1556) (MRSA (ATCC BAA-1556) [27]): 64 µg/mL (≈ 53.2 µM)
MBC [21]: 2 µg/mL (≈ 1.66 µM)
MIC (E. coli (ATCC 25922) [10]; ATCC25922, read-out: MIC antibiotic alone): 2 µg/mL
MIC [13]: 1 µg/mL
MIC (E. coli (ATCC BAA-2452)): 1 µg/mL (≈ 0.831 µM)
MIC [28]: 2 µg/mL (≈ 1.66 µM)
MIC [29]: 2 µg/mL (≈ 1.66 µM)
MIC [30]: 1 µg/mL (≈ 0.831 µM)
MIC [31]: 1 µg/mL (≈ 0.831 µM)
MBC [22]: 2 µg/mL (≈ 1.66 µM)
MIC [23]: 1 µg/mL (≈ 0.831 µM)
MIC (MRSA (ATCC BAA-1556) [24]; [35]): 64 µg/mL (≈ 53.2 µM)
MIC (E. coli (ATCC 25922) [25]): 2 µg/mL (≈ 1.66 µM)
MBC (E. coli (ATCC 25922) [26]): 4 µg/mL (≈ 3.32 µM)
change in MIC on resistance induction [19]: negligible changes in the MICs
MIC [32]: 1 µg/mL (≈ 0.831 µM)
